Measurements: PubChem BioAssay AID328 (DTP/NCI, 2004)
Several values for one entry are separate records, joined by “and”; a condition that tells them apart may be missing. Identical values can stand only once. Inconclusive results and toxic doses are left out.

Tested on: BDF1 mice, P388 leukemia ip, median survival T/C
Test: NCI In Vivo Anticancer Drug Screen. Data for tumor model P388 Leukemia (intraperitoneal) in B6D2F1 (BDF1) mice
Settings: endpoint: median survival time, higher = longer survival
In short: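 Transplantable tumour in mice; compound vs vehicle dosing; survival scored; ratio of treated to control reported.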

[1] = dose: 400.0 mg/kg/injection, schedule: Q04DX003 (ip), vehicle: saline
[2] = dose: 1.5 mg/kg/injection, schedule: Q01DX009 (ip), vehicle: saline with Tween-80
[3] = dose: 50.0 mg/kg/injection, schedule: Q04DX003 (ip), vehicle: saline with Tween-80
[4] = dose: 100.0 mg/kg/injection, schedule: Q01DX009 (ip), vehicle: saline with Tween-80
[5] = dose: 100.0 mg/kg/injection, schedule: Q04DX003 (ip), vehicle: saline with Tween-80
[6] = dose: 200.0 mg/kg/injection, schedule: Q04DX003 (ip), vehicle: saline with Tween-80

`N=c1ccn2c(n1)OC1C(OP(=O)(O)O)C(CO)OC12` (stereo not drawn) was tested, and the T/C (dose: 52.0 mg/kg/injection, schedule: Q04DX003 (ip), vehicle: saline) was 109 % of control, the T/C (dose: 118.0 mg/kg/injection, schedule: Q04DX003 (ip), vehicle: saline) was 159 % of control and the T/C (dose: 177.0 mg/kg/injection, schedule: Q04DX003 (ip), vehicle: saline) was 172 % of control and 185 % of control. The T/C (dose: 266.0 mg/kg/injection, schedule: Q04DX003 (ip), vehicle: saline with Tween-80) was 172 % of control, the T/C (dose: 266.0 mg/kg/injection, schedule: Q04DX003 (ip), vehicle: saline) was 205 % of control and the T/C (dose: 400.0 mg/kg/injection, schedule: Q04DX003 (ip), vehicle: saline with Tween-80) was 181 % of control. The T/C [1] was 200 % of control, the T/C (dose: 600.0 mg/kg/injection, schedule: Q04DX003 (ip), vehicle: saline with Tween-80) was 200 % of control and the T/C (dose: 600.0 mg/kg/injection, schedule: Q04DX003 (ip), vehicle: saline) was 230 % of control.

In the case of `CN=C(NC)c1ccc(NC(=O)/C=C\c2ccc(C(=O)Nc3ccc(C(=NC)NC)cc3)cc2)cc1`, the T/C (dose: 0.15 mg/kg/injection, schedule: Q01DX009 (ip), vehicle: saline with Tween-80) is reported as 116 % of control, the T/C (dose: 0.5 mg/kg/injection, schedule: Q01DX009 (ip), vehicle: saline with Tween-80) is reported as 155 % of control and the T/C (dose: 1.32 mg/kg/injection, schedule: Q04DX003 (ip), vehicle: saline with Tween-80) is reported as 108 % of control. The T/C [2] was 161 % of control, the T/C (dose: 2.0 mg/kg/injection, schedule: Q04DX003 (ip), vehicle: saline with Tween-80) was 112 % of control and the T/C (dose: 4.4 mg/kg/injection, schedule: Q04DX003 (ip), vehicle: saline with Tween-80) was 154 % of control. For the same compound, the T/C (dose: 4.5 mg/kg/injection, schedule: Q04DX003 (ip), vehicle: saline with Tween-80) was 162 % of control, the T/C (dose: 6.6 mg/kg/injection, schedule: Q04DX003 (ip), vehicle: saline with Tween-80) was 168 % of control and the T/C (dose: 10.0 mg/kg/injection, schedule: Q04DX003 (ip), vehicle: saline with Tween-80) was 154 % of control. The T/C (dose: 12.5 mg/kg/injection, schedule: Q04DX003 (ip), vehicle: saline with Tween-80) was 177 % of control, the T/C (dose: 15.0 mg/kg/injection, schedule: Q04DX003 (ip), vehicle: saline with Tween-80) was 177 % of control and the T/C (dose: 25.0 mg/kg/injection, schedule: Q04DX003 (ip), vehicle: saline with Tween-80) was 100 % of control. For the same compound, the T/C [3] was 86 % of control.

For `CCC(C)SC1=NC=NC2=NC=NC21` (stereo not drawn), the T/C (dose: 50.0 mg/kg/injection, schedule: Q01DX009 (ip), vehicle: saline with Tween-80) was 100 % of control, the T/C [4] was 96 % of control and the T/C [5] was 91 % of control. For the same compound, the T/C [6] was 100 % of control.

In the case of `O=C1C(=O)c2ccccc2C([O-])=C1[n+]1ccccc1`, the T/C [3] is reported as 109 % of control, the T/C [5] is reported as 95 % of control and the T/C [6] is reported as 90 % of control.

For `COC(=O)C12OCC34C(CC5C(C)=C(O)C(=O)CC5(C)C3C(O)C1O)OC(=O)C(OC(=O)/C=C(\C)C(C)(C)O)C24` (stereo not drawn), the T/C (dose: 0.2 mg/kg/injection, schedule: Q01DX009 (ip), vehicle: saline) was 165 % of control, the T/C (dose: 0.4 mg/kg/injection, schedule: Q01DX009 (ip), vehicle: saline) was 165 % of control and the T/C (dose: 0.8 mg/kg/injection, schedule: Q01DX009 (ip), vehicle: saline) was 163 % of control. The T/C (dose: 60.0 micrograms/kg/injection, schedule: Q01DX009 (ip), vehicle: saline + alcohol) was 183 % of control, the T/C (dose: 120.0 micrograms/kg/injection, schedule: Q01DX009 (ip), vehicle: saline + alcohol) was 183 % of control and the T/C (dose: 250.0 micrograms/kg/injection, schedule: Q01DX009 (ip), vehicle: saline + alcohol) was 200 % of control. The T/C (dose: 500.0 micrograms/kg/injection, schedule: Q01DX009 (ip), vehicle: saline + alcohol) was 211 % of control, the T/C (dose: 1000.0 micrograms/kg/injection, schedule: Q01DX009 (ip), vehicle: saline + alcohol) was 238 % of control and the T/C (dose: 2000.0 micrograms/kg/injection, schedule: Q01DX009 (ip), vehicle: saline + alcohol) was 194 % of control.

`c1ccc(CSc2ncnc3nc[nH]c23)nc1` was tested, and the T/C (dose: 50.0 mg/kg/injection, schedule: Q01DX009 (ip), vehicle: saline sonified) was 100 % of control, the T/C [3] was 105 % of control and the T/C (dose: 100.0 mg/kg/injection, schedule: Q01DX009 (ip), vehicle: saline sonified) was 111 % of control. The T/C [5] was 100 % of control and the T/C [6] was 100 % of control.

`C[C@@H]1C[C@H]2C(=CC1=O)CC[C@@H]1[C@@H]2CC[C@@]2(C)[C@H]1CC[C@]2(C)O` was tested, and the T/C (dose: 50.0 mg/kg/injection, schedule: Q01DX009 (ip), vehicle: Klucel (hydroxypropylcellulose) (HPC)) was 95 % of control, the T/C (dose: 50.0 mg/kg/injection, schedule: Q04DX003 (ip), vehicle: Klucel (hydroxypropylcellulose) (HPC)) was 91 % of control and the T/C (dose: 100.0 mg/kg/injection, schedule: Q01DX009 (ip), vehicle: Klucel (hydroxypropylcellulose) (HPC)) was 87 % of control. For the same compound, the T/C (dose: 100.0 mg/kg/injection, schedule: Q04DX003 (ip), vehicle: Klucel (hydroxypropylcellulose) (HPC)) was 91 % of control and 103 % of control, the T/C (dose: 200.0 mg/kg/injection, schedule: Q01DX009 (ip), vehicle: Klucel (hydroxypropylcellulose) (HPC)) was 108 % of control and the T/C (dose: 200.0 mg/kg/injection, schedule: Q04DX003 (ip), vehicle: Klucel (hydroxypropylcellulose) (HPC)) was 96 % of control and 100 % of control.

`C=C1C(C)C2C(Cc3ccccc3)NC(=O)C23C(OC(C)=O)C=CC(C)(O)C(=O)C(C)C/C=C/C3C1O` (stereo not drawn) was tested, and the T/C (dose: 0.62 mg/kg/injection, schedule: Q01DX009 (ip), vehicle: saline with Tween-80) was 104 % of control, the T/C (dose: 1.25 mg/kg/injection, schedule: Q01DX009 (ip), vehicle: saline with Tween-80) was 110 % of control and the T/C (dose: 1.6 mg/kg/injection, schedule: Q01DX009 (ip), vehicle: saline) was 157 % of control. For the same compound, the T/C (dose: 2.5 mg/kg/injection, schedule: Q01DX009 (ip), vehicle: saline) was 172 % of control.

For `FC(F)(F)c1nc[nH]c1C(F)(F)F`, the T/C (dose: 3.12 mg/kg/injection, schedule: Q01DX009 (ip), vehicle: water) was 99 % of control, the T/C (dose: 6.25 mg/kg/injection, schedule: Q01DX009 (ip), vehicle: water) was 90 % of control and the T/C (dose: 12.5 mg/kg/injection, schedule: Q01DX009 (ip), vehicle: water) was 91 % of control. For the same compound, the T/C (dose: 25.0 mg/kg/injection, schedule: Q01DX009 (ip), vehicle: water) was 99 % of control, the T/C (dose: 50.0 mg/kg/injection, schedule: Q01DX009 (ip), vehicle: water) was 89 % of control and the T/C (dose: 50.0 mg/kg/injection, schedule: Q04DX003 (ip), vehicle: water) was 98 % of control. The T/C (dose: 100.0 mg/kg/injection, schedule: Q04DX003 (ip), vehicle: water) was 104 % of control.

With `CCOC(=O)c1cc(C)nnc1C(=O)OCC` the T/C (dose: 100.0 mg/kg/injection, schedule: Q04DX003 (ip), vehicle: saline) was 95 % of control, the T/C (dose: 200.0 mg/kg/injection, schedule: Q04DX003 (ip), vehicle: saline) was 95 % of control and the T/C [1] was 91 % of control.

For `O=NN(CCBr)C(=O)NC1CCCCC1`, the T/C [2] was 109 % of control, the T/C (dose: 3.0 mg/kg/injection, schedule: Q01DX009 (ip), vehicle: saline with Tween-80) was 109 % of control and the T/C (dose: 6.0 mg/kg/injection, schedule: Q01DX009 (ip), vehicle: saline with Tween-80) was 113 % of control. The T/C (dose: 100.0 mg/kg/injection, schedule: Q01DX009 (ip), vehicle: gum acacia) was 103 % of control, the T/C [4] was 122 % of control and the T/C (dose: 100.0 mg/kg/injection, schedule: Q04DX003 (ip), vehicle: gum acacia) was 113 % of control. The T/C [5] was 109 % of control, the T/C (dose: 133.0 mg/kg/injection, schedule: Q01DX009 (ip), vehicle: gum acacia) was 115 % of control and the T/C (dose: 150.0 mg/kg/injection, schedule: Q01DX009 (ip), vehicle: saline with Tween-80) was 95 % of control. The T/C (dose: 200.0 mg/kg/injection, schedule: Q01DX009 (ip), vehicle: saline with Tween-80) was 118 % of control and 122 % of control, the T/C (dose: 200.0 mg/kg/injection, schedule: Q04DX003 (ip), vehicle: gum acacia) was 104 % of control and the T/C [6] was 109 % of control. The T/C (dose: 300.0 mg/kg/injection, schedule: Q01DX009 (ip), vehicle: gum acacia) was 100 % of control, the T/C (dose: 400.0 mg/kg/injection, schedule: Q01DX009 (ip), vehicle: gum acacia) was 103 % of control and the T/C (dose: 400.0 mg/kg/injection, schedule: Q04DX003 (ip), vehicle: gum acacia) was 91 % of control.
